Source: PubChem BioAssay (NCI)
Where “and” joins values, the source holds several entries; their conditions need not be identical. Equal values may be shown once.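 48-hour exposure; five concentrations; linearly interpolated endpoints. GI50 is the concentration that inhibits growth by half. TGI denotes the concentration required for complete inhibition of growth.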

What was measured:
Experiment in all cases: NCI tumour cell line growth inhibition, 48 h
XF 498 CNS = test system: XF 498 CNS
DMS 114 small cell lung = test system: DMS 114 small cell lung
M19-MEL melanoma = test system: M19-MEL melanoma
DLD-1 colon = test system: DLD-1 colon
LXFL 529 NSCLC = test system: LXFL 529 NSCLC
HOP-18 NSCLC = test system: HOP-18 NSCLC
KM20L2 colon = test system: KM20L2 colon
RXF-631 renal = test system: RXF-631 renal
SNB-78 CNS = test system: SNB-78 CNS
P388/ADR leukemia = test system: P388/ADR leukemia
SN12K1 renal = test system: SN12K1 renal

Row | Structure (SMILES) | TGI (XF 498 CNS) | TGI (DMS 114 small cell lung) | TGI (M19-MEL melanoma) | TGI (DLD-1 colon) | TGI (LXFL 529 NSCLC) | TGI (HOP-18 NSCLC) | TGI (KM20L2 colon) | TGI (RXF-631 renal) | TGI (SNB-78 CNS) | GI50 (KM20L2 colon) | GI50 (DMS 114 small cell lung) | GI50 (M19-MEL melanoma) | GI50 (DLD-1 colon) | GI50 (SNB-78 CNS) | TGI (P388/ADR leukemia) | GI50 (SN12K1 renal) | TGI (SN12K1 renal)
1 | CN(C)CCSC(=Nc1ccccc1)N1CCCCC1 | 30 µM | 26.5 µM | 31.2 µM | 31.5 µM | 29.4 µM | 33.5 µM | 31.7 µM | – | – | – | – | – | – | – | – | – | –
2 | O=C1Nc2cc([N+](=O)[O-])ccc2NC1/C(=N\Nc1ccccc1)C(O)c1cccc([N+](=O)[O-])c1 (stereo unspecified) | > 100 µM | > 100 µM | > 100 µM | > 100 µM | > 100 µM | – | > 100 µM | > 100 µM | > 100 µM | – | – | – | – | – | – | – | –
3 | CC(=O)O[C@]12CCCC1C1(O)C(O)CCCC12 (stereo partly specified) | > 100 µM | > 100 µM | > 100 µM | – | > 100 µM | > 100 µM | > 100 µM | – | > 100 µM | – | – | – | – | – | – | – | –
4 | Cc1cccc(C2=NC(C)(C)C(C)(C)N=C2c2cccc(C)n2)n1 | > 100 µM | > 100 µM | > 100 µM | > 100 µM | > 100 µM | > 100 µM | > 100 µM | > 100 µM | > 100 µM | – | – | – | – | – | – | – | –
5 | COc1cccc(Cc2c3cc(OC)ccc3cc[n+]2C)c1 | 70.7 µM | – | – | > 100 µM | > 100 µM | – | > 100 µM | – | > 100 µM | – | – | – | – | – | – | – | –
6 | O=C(N/N=C/c1cc(Cl)cc(Cl)c1[O-])c1ccccc1O.O=C(N/N=C/c1cc(Cl)cc(Cl)c1[O-])c1ccccc1O.[Ni+2] | – | – | – | – | – | – | 2.15 µM | – | – | 0.794 µM | – | – | – | – | – | – | –
7 | O=C1c2c(nc3ccccc3c2-c2ccccc2)CN1Nc1ccccn1 | > 100 µM | > 76.1 µM | > 100 µM | > 100 µM | > 100 µM | – | – | 50.7 µM | > 42.3 µM | – | – | – | – | – | – | – | –
8 | O=C1NC2(CCCCC2)C2CCCCCC12 (stereo unspecified) | > 100 µM | > 100 µM | – | > 100 µM | > 100 µM | – | > 100 µM | > 100 µM | > 100 µM | – | – | – | – | – | – | – | –
9 | N#C[S-].[Nd+3].c1ccc(-c2ccccn2)nc1.c1ccc(-c2ccccn2)nc1.c1ccc(-c2ccccn2)nc1 | – | 67.1 µM | 54 µM | > 100 µM | – | – | 6.08 µM | – | > 100 µM | 2.38 µM | 15.7 µM | 9.78 µM | 3.45 µM | 94.2 µM | – | – | –
10 | c1ccc2c(c1)CCc1cc3cc4c(nc3nc1-2)-c1ccccc1CC4 | – | – | > 100 µM | > 100 µM | > 100 µM | – | – | – | > 100 µM | – | – | – | – | – | – | – | –
11 | CCCCOP1(=O)C=C(C)C(=C(Cl)Cl)C(C)=C1 (stereo unspecified) | 46.2 µM | 10.8 µM | 32.9 µM | 38.9 µM | – | 82.2 µM | 5.13 µM | 33.9 µM | 6.04 µM | – | – | – | – | – | – | – | –
12 | NCCNc1cccc2ccccc12 | – | > 100 µM | > 100 µM | > 100 µM | > 100 µM | > 100 µM | > 100 µM | > 100 µM | > 100 µM | – | – | – | – | – | – | – | –
13 | c1ccc2c(c1)nc(NC1CCCC1)c1[nH]c(C3CCCC3)nc12 | 34.4 µM | 35.4 µM | 27.7 µM | > 100 µM | 22.8 µM | 45.5 µM | 20.8 µM | – | > 92.7 µM | – | – | – | – | – | – | – | –
14 | NC(=O)C#CC(N)=O | – | 71.5 µM and 125 µM and > 100 µM | 24.8 µM and 22.4 µM and > 65.8 µM | 87.5 µM and 68.3 µM and > 100 µM | > 100 µM | 43.5 µM and 33.2 µM | – | > 100 µM | 72.3 µM and 202 µM and > 100 µM | – | 24.4 µM and 38.3 µM and > 100 µM | 11.8 µM and 10.1 µM and 28.6 µM | 26.5 µM and 22.2 µM and 62.5 µM | 22.5 µM and 121 µM | 875 µM | 14.8 µM | 27.4 µM and 26.7 µM
15 | Cc1cccc(NC(=O)C(=O)C(C(=O)c2ccccc2F)C2OC(=O)c3ccccc32)c1Cl (stereo unspecified) | > 100 µM | 53 µM | > 100 µM | > 100 µM | > 100 µM | – | 88.5 µM | – | > 100 µM | – | – | – | – | – | – | – | –
